# Reference: the METLIN SMRT retention time set (Domingo-Almenara et al. 2019)
# Test: gradient 5% acetonitrile 3 min, to 50% in 2 min, to 85% in 15 min, held 3 min, 100 µL/min
# Details: column: Zorbax Extend-C18 2.1 x 50 mm; eluents: water / acetonitrile, 0.1% formic acid
# Procedure, shortened: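 Data were gathered over 3 months by HPLC coupled to a quadrupole time-of-flight mass spectrometer, operated in positive and negative ionization mode. Mixtures of ~100 pure standards ran on a Zorbax Extend-C18 column (2.1 × 50 mm, 1.8 μm) at 100 μL/min, with water and acetonitrile each containing 0.1% formic acid and dead and dwell volumes of 40 μL and 900 μL. Retention time was read from adduct peaks picked by computer and checked manually.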
row,SMILES,RP-LC retention time
1,CCN(CC)S(=O)(=O)c1ccc2nc(NCc3ccc4c(c3)OCO4)cnc2c1,964 s
2,Cc1noc(C2CN(C(=O)COc3ccc(Cl)cc3)CC23CCOCC3)n1 (stereo not drawn),768 s
3,CCCN1C(=O)COc2ccc(-c3csc(NC(=O)c4ccc(F)cc4)n3)cc21,1060 s
4,Cc1ccc2c(Nc3cc(F)ccc3F)c(C(=O)OC(C)C)cnc2n1,771 s
5,O=C1CN(Cc2ccc3c(c2)OCO3)C2CS(=O)(=O)CC2N1c1cccc(Cl)c1 (stereo not drawn),770 s
6,COc1ccc2c(c1)C1(CCN(S(=O)(=O)c3ccc(C#N)cc3)C1)C(=O)N2 (stereo not drawn),797 s
7,O=C(N[C@H]1C[C@@H]2C[C@H]1CN2S(=O)(=O)c1ccc(C(F)(F)F)cc1)c1cccnc1,794 s
8,Cc1ccc(NC(=O)CSc2nccc(N3CCN(c4cc(C)ccc4C)CC3)n2)c(C)c1,1060 s
9,COCC(=O)Nc1ccccc1NC(=O)c1ccsc1,648 s
10,COc1ccc(Cl)cc1C(=O)NCC(O)C1CCCCC1 (stereo not drawn),863 s
11,COc1ccc(N2C(=O)CN(Cc3ccccc3C)[C@H]3CS(=O)(=O)C[C@H]32)cc1,812 s
12,CC(=O)NCc1nc(-c2ccc(Oc3ccc(NC(C)=O)cc3)cc2)no1,662 s
13,CN(C)CCNC(=O)C1CCN(c2ccc(-c3cccs3)nn2)CC1,571 s
14,Cc1ccc(Nc2c(-c3ccc(O)cc3)nc3c(C)cccn23)cc1,676 s
15,Cc1ccc(NC(=O)Cn2c(=O)c3cc(-c4cccs4)nn3c3ncccc32)cc1F,924 s
16,COC(=O)C(C)n1cc(-c2nc(-c3ccc(Cl)cc3)no2)ccc1=O (stereo not drawn),950 s

row,SMILES,RP-LC retention time
1,Cc1noc(C2CN(C(=O)c3ccc(=O)n(C)n3)C2)n1,530 s
2,CCN(CC)S(=O)(=O)c1ccc2c(c1)CC(C(=O)NC1CCCCC1)N2C(C)=O (stereo not drawn),839 s
3,O=C(c1ccsc1)N1CCCn2nc(-c3ccc(Cl)cc3)cc2C1,945 s
4,O=C(Nc1nc2c(s1)COc1ccccc1-2)C1COc2ccccc2O1 (stereo not drawn),980 s
5,CCCN(CCC)C1CCc2ccc(O)cc2C1 (stereo not drawn),640 s
6,O=C(Nc1nc(-c2ccc(Cl)cc2)cs1)c1cccc(-n2cnnc2)n1,865 s
7,Cc1ccc(NS(=O)(=O)c2n[nH]c(C)c2C(=O)NCc2ccc(F)cc2F)cc1,821 s
8,CCOC(=O)c1[nH]c2ccc(F)cc2c1NC(=O)CN(CC)CC,605 s
9,CCn1cc(CN2CCCCC2c2nncn2Cc2ccccc2)cn1 (stereo not drawn),575 s
10,O=C(c1ccc(F)cc1)N1CCC(n2nc(-c3ccsc3)ccc2=O)CC1,816 s
11,COc1ccc(S(=O)(=O)N2CCCC(C(=O)NC3CC3)C2)cc1Cl (stereo not drawn),780 s
12,CC(Oc1ccccc1)C(=O)N1CCN(c2nc(CN3CCOCC3)cs2)CC1 (stereo not drawn),621 s
13,CCC(=O)N1CCOc2ccc(N(C)C)cc2C1,570 s
14,O=c1ccc(-n2cccn2)nn1CCNS(=O)(=O)c1ccc(F)c(Cl)c1,722 s
15,COC(=O)c1cc2c(=O)n(Cc3ccccc3Cl)ccc2nc1C,902 s

# Further lines, results first:
row,RP-LC retention time,SMILES
1,657 s,O=C1CCc2cc(NC(=O)c3ccc(F)c(F)c3)ccc2N1
2,784 s,COc1ccc(-c2nc3ncccn3c2Nc2cc(C)cc(C)c2)cc1
3,752 s,Cc1cc(C)cc(NC(=O)Cn2nc3c4cc(F)ccc4ncn3c2=O)c1
4,634 s,CCN(CCN(C)C)c1ccc(C(=O)O)cc1NS(=O)(=O)c1cc(F)ccc1C
5,597 s,CCOC(=O)c1c(C)[nH]c(CCC(=O)NCCN2CCOCC2)c1C
6,642 s,CSc1nc(NCCN(C)C)c(C#N)c(-c2ccccc2)n1
7,913 s,CC(Oc1ccccc1Cl)C(=O)Nc1ccnn1Cc1cccs1 (stereo not drawn)
8,943 s,Cc1ccc(NC(=O)CN2C(=O)C3CCCCN3c3ccc(S(=O)(=O)N(C)C)cc32)cc1 (stereo not drawn)
9,902 s,COc1ccc(NC(=O)c2sc(-c3cn(C(C)C)c4ncccc34)nc2C)cc1
10,1100 s,Cc1ccc(OCc2nn3c(COc4ccc(F)cc4)nnc3s2)cc1C
11,1050 s,CCN1C(=O)COc2ccc(-c3nc(NC(=O)c4ccc(F)cc4)sc3C)cc21
12,1050 s,Cc1sc(-c2noc(C3CCC3)n2)cc1S(=O)(=O)N1CCC(C(=O)N2CCCCC2)CC1
13,609 s,O=C(NCc1ccccc1)c1ncccn1
14,1290 s,Cc1nn(-c2nc(-c3ccc(Cl)cc3)cs2)c(C)c1CC(=O)N1CCN(c2ccccc2)CC1
15,925 s,COc1ccc(NC(=O)Cn2cccc(-c3nc(-c4ccc(Br)cc4)no3)c2=O)cc1
16,845 s,Cc1nc(CC(=O)Nc2ccc(F)cc2Cl)cs1
17,720 s,Cc1c(CNCc2ccco2)c(C(=O)O)c(C)n1Cc1ccccc1Cl
18,736 s,O=C(Nc1cccc(Cl)c1)Nc1ccc2nc3n(c(=O)c2c1)CCC3
19,847 s,Cn1cc(-c2ccc(F)cc2)cc1C(=O)NC1CC1

row,RP-LC retention time,SMILES
1,833 s,CCc1noc([C@@H]2CC(F)(F)CN2C(=O)c2ccoc2C)n1
2,1120 s,O=c1ccc(-c2ccc(F)cc2)nn1CCc1nc(-c2ccc(F)c(Br)c2)no1
3,708 s,CNC(=O)C1CCN(Cc2cc3ccccc3n2Cc2ccc(Cl)cc2)CC1
4,868 s,CCN1C(=O)C(C)(C(=O)Nc2cc(OC)cc(OC)c2)Oc2cccnc21 (stereo not drawn)
5,1020 s,Cc1cccc2c(=O)n(C3CCN(S(=O)(=O)c4cccc(Cl)c4)CC3)cnc12
6,1080 s,C=CCN(Cc1nc(-c2cccc(C)c2)no1)C(=O)Nc1ccccc1C
7,590 s,Cc1ccc(CN2CCC[C@H]2c2nc(C3CCOCC3)n[nH]2)c(C)c1
8,623 s,O=C(COc1ccccc1)N1CCN(c2nc(CN3CCCC3)cs2)CC1
9,1100 s,O=C(Cn1cccc1-c1nc(-c2ccccc2)no1)Nc1ccc2c(c1)CCC2
10,577 s,CCOc1ccccc1NC(=O)N1CCc2nc[nH]c2C1
11,648 s,CCNC(=O)c1n[nH]c2c1CN(C(=O)c1cc(F)ccc1F)CC2
12,728 s,C=CCNC(=O)C1CCN(C(=O)Nc2ccc(NC(=O)Nc3ccc(C)cc3C)cc2)CC1
13,672 s,Cc1ccccc1-c1nc(CN2CCN(C(=O)NC3CCCC3)CC2)c(C)o1
14,772 s,O=C(CN1C(=O)NC2(CCCCC2)C1=O)NCc1cccc(Br)c1
15,535 s,CCOC(=O)c1c(CN2CCOCC2)n(C)c2cc(-c3cccnc3)c(O)cc12
16,865 s,CNC(=O)c1cc2c(C)nn(-c3cccc(F)c3)c2s1
17,686 s,COc1ccc(S(=O)(=O)Nc2ccc3oc(-c4ccccc4OC)cc(=O)c3c2)cc1
18,581 s,CCN1CCN(CCCNC(=O)c2cc(-c3cccnc3)nc3ccc(Br)cc23)CC1
